Laboratory results as given in PMC12007624 (Open Forum Infectious Diseases, 2025).
Each block holds one compound with its values, some of them ahead of it.

Assays:
[1] = tested on: renal organic cation transporter OCT2; details: renal tubules; interferes with creatinine clearance; cited from earlier work
[2] = tested on: multidrug and toxin extrusion transporter MATE1; details: renal tubules; cited from earlier work
[3] = Pharmacokinetics of RAL before and DTG after switch to DTG-based ART; assay type: in vivo, human; details: SOT recipients receiving immunosuppressants
[4] = Pharmacokinetics of immunosuppressants before and 2 weeks after ART switch; assay type: in vivo, human; details: for AUC % Change / Cmax % Change / Cmin % Change: after vs before ART switch, P > .05

SMILES: C[C@@H]1CCO[C@H]2Cn3cc(C(=O)NCc4ccc(F)cc4F)c(=O)c(O)c3C(=O)N12 [DTG, Dolutegravir]
effect on OCT2 [1]: inhibits
effect on MATE1 [2]: potentially
plasma levels versus normal range [3]: in the normal range

Cmin ([4]; After ART switch (2 weeks on DTG-based ART), plasma, median (IQR)): 2.9 (1.7, 4) µg/mL
Cmin ([4]; Before ART switch (RAL-based ART), plasma, median (IQR)): 1.9 (1.5, 2.5) µg/mL
AUC % Change [4]: 16%
Cmax % Change [4]: 63%
Cmin % Change [4]: 53%
AUC % Change ([4]; listed as mycophenolic acid): +16%
Cmax % Change ([4]; listed as mycophenolic acid): +63%
Cmin % Change ([4]; listed as mycophenolic acid): +53%
SMILES: COc1c(C)c2c(c(O)c1C/C=C(\C)CCC(=O)O)C(=O)OC2 [Mycophenolic Acid, mycophenolic acid]

plasma levels versus normal range [3]: in the normal range
SMILES: Cc1nnc(C(=O)NC(C)(C)c2nc(C(=O)NCc3ccc(F)cc3)c(O)c(=O)n2C)o1 [RAL, Raltegravir]

Cmin ([4]; After ART switch (2 weeks on DTG-based ART), blood, median (IQR)): 4.4 (4.3, 8.5) ng/mL
Tmax ([4]; After ART switch (2 weeks on DTG-based ART), median (IQR)): 2 (1, 2) h
Cmin ([4]; Before ART switch (RAL-based ART), blood, median (IQR)): 6.2 (5.2, 8.9) ng/mL
AUC % Change [4]: −9%
Cmax % Change [4]: 14%
Cmin % Change [4]: −29%
Cmax % Change ([4]; listed as tacrolimus): +14%
SMILES: C=CC[C@@H]1/C=C(\C)C[C@H](C)C[C@H](OC)[C@H]2O[C@@](O)(C(=O)C(=O)N3CCCC[C@H]3C(=O)O[C@H](/C(C)=C/[C@@H]3CC[C@@H](O)[C@H](OC)C3)[C@H](C)[C@@H](O)CC1=O)[C@H](C)C[C@@H]2OC [Tacrolimus, tacrolimus]
